Laboratory results from patent publication US20200087732A1, “IDENTIFICATION OF DRUGS TARGETING NON-GENETIC DRUG TOLERANCE PROGRAMS IN CANCER” (ETH ZURICH, priority 2016, published 2020).

What was measured:
Format in all cases: cell-based
SOX2 = SOX2 levels by Western blot after MAPKi treatment; conditions: A375-P cells, indicated times
Experimental: (A) A375-P cells were treated with PLX4720 (BRAFi) or DMSO for 6 h, RNA was isolated and RNA-Seq was performed. […] Differentially expressed genes (DEGs) selected for pathway analysis are represented by red and blue dots depending on the direction of the transcriptional change (red genes are induced upon PLX4720, blue genes are repressed upon PLX4720). (B) Bar graphs showing the five top pathways with significant enrichment of the analyzed DEGs. Longer bars indicate stronger significance. (C) Top deregulated genes upon treatment with PLX4720 (left column). Top genes induced and repressed by PLX4720 are shown in separate lists. (D) Indicated cell lines were treated with 1 μM PLX4720 or 0.01% DMSO (0 h) for the indicated times and the expressional changes of selected genes associated with stemness/EMT were confirmed by qPCR. […] Data shown represent mean of independent biological triplicates ±SEM. (E) Western blot analysis of the same experiment as shown in (D). As key player in the stemness signature, SOX2 levels were assessed. P-ERK1/2 levels served as positive treatment controls. Total ERK1/2 levels served as loading control. (F) A375-P cells were treated with 1 μM PLX4720, 0.5 μM AZD6244 (MEK1/2 inhibitor) or 0.01% DMSO for the indicated times and SOX2 levels were assessed by Western blot analysis. […] (G) A375-P cells were treated with 1 μM PLX4720 (BRAFi), 0.5 μM AZD6244 (MEKi), a combination of both drugs or 0.01% DMSO for the indicated times and SOX2 levels were assessed by Western blot analysis. […] (H) A375-P cells were treated with 1 μM PLX4720 (BRAFi), 0.5 μM AZD6244 (MEKi), a combination of both drugs or 0.01% DMSO for the 24 h and the expressional changes of selected genes associated with stemness/EMT were confirmed by qPCR. […] For all Western blots, individual time points were assessed in at least two independent experiments. Representative data is shown.

[1] = system: genes associated with stemness/EMT; test: qPCR of selected genes associated with stemness/EMT in A375-P cells; conditions: FIG. 1H, 1 μM PLX4720, 0.5 μM AZD6244 or combination of both, 24 h
Experimental: (A) A375-P cells were treated with PLX4720 (BRAFi) or DMSO for 6 h, RNA was isolated and RNA-Seq was performed. […] (B) Bar graphs showing the five top pathways with significant enrichment of the analyzed DEGs. Longer bars indicate stronger significance. […] Data shown represent mean of independent biological triplicates ±SEM. (E) Western blot analysis of the same experiment as shown in (D). As key player in the stemness signature, SOX2 levels were assessed. P-ERK1/2 levels served as positive treatment controls. Total ERK1/2 levels served as loading control. (F) A375-P cells were treated with 1 μM PLX4720, 0.5 μM AZD6244 (MEK1/2 inhibitor) or 0.01% DMSO for the indicated times and SOX2 levels were assessed by Western blot analysis. […] (G) A375-P cells were treated with 1 μM PLX4720 (BRAFi), 0.5 μM AZD6244 (MEKi), a combination of both drugs or 0.01% DMSO for the indicated times and SOX2 levels were assessed by Western blot analysis. […] For all Western blots, individual time points were assessed in at least two independent experiments. Representative data is shown.

S6K and BAD = test: Survival signaling by Western blot in A375-P/pTRIPZ cells; conditions: FIG. 2G, PLX4720 for 48 h
Experimental: (§1) (A) A375-P cells were transfected with 100 nM siRNA targeting SOX2 or a negative control siRNA. Cells were then treated with PLX4720 (BRAFi) or DMSO for 48 h. 2 h before harvesting, cells were pulsed with 3 uM EdU to label cycling cells. EdU-positive cells were detected using flow cytometry. […] Representative data is shown. (B) Quantification of experiment (A). For each condition, percentage of cycling cells upon siRNA knockdown of SOX2 was normalized to the negative control siRNA. Data shown represent mean of independent biological triplicates ±SEM. (C) A375-P cells stably transduced with pTRIPZ-SOX2 vector were treated with the indicated concentrations of doxycycline for three days or with 1 μM PLX4720 (PLX) for 24 h. SOX2 overexpression was confirmed by Western blot analysis. Lamin A served as loading control. Individual concentrations were assessed in at least two independent experiments. Representative results are shown. (D) A375-P/pTRIPZ-control or -SOX2 cells were pre-treated with 0 ng/ml (negative control) or with 50 ng/ml doxycycline for 24 h, and subsequently with DMSO or PLX4720 for an additional 48 h. 2 h before harvesting, cells were pulsed with 3 uM EdU to label cycling cells. EdU-positive cells were detected using flow cytometry. […] Cell viability was assessed by PrestoBlue assay and IC50 values were calculated. […] Survival signaling was assessed by Western blot. […]

[2] = system: A375-P/pTRIPZ-control or -SOX2 cells; test: Cell viability by PrestoBlue assay; conditions: FIG. 2E-F; pTRIPZ-SOX2 cells with 50 ng/ml doxycycline versus 0 ng/ml; serial dilutions of PLX4720 for four days
Experimental: as §1

[3] = FIG. 1F, 1 μM PLX4720 or 0.5 μM AZD6244
[4] = FIG. 1G, 1 μM PLX4720, 0.5 μM AZD6244 or combination of both

Row | Compound | SOX2 levels (Western blot) (SOX2; [3]) | SOX2 levels (Western blot) (SOX2; [4]) | transcript levels of selected stemness/EMT genes (qPCR) [1] | survival signaling via S6K and BAD (Western blot) (S6K and BAD) | drug sensitivity (survival curve, cell viability) [2]
1 | Cn1cnc2c(F)c(Nc3ccc(Br)cc3Cl)c(C(=O)NOCCO)cc21 [AZD6244] | induce similar SOX2 levels | comparable effects on SOX2 levels | comparable effects on transcript levels | – | –
2 | CCCS(=O)(=O)Nc1ccc(F)c(C(=O)c2c[nH]c3ncc(Cl)cc23)c1F [PLX4720] | induce similar SOX2 levels | comparable effects on SOX2 levels | comparable effects on transcript levels | repressed | decreased drug sensitivity when SOX2 is overexpressed
